This note sets out measurements from patent publication US9403845B2, “Pesticidally active pyridyl- and pyrimidyl- substituted pyrazole derivatives” (Syngenta Participations AG, priority 2012, dated 2016).

Usually mortality stands for the percentage killed. The term melting point denotes the temperature, or range, at which the solid turns liquid.

Series [1] relates to Myzus persicae (Green Peach Aphid). In words: Activity against Myzus persicae (green peach aphid), mixed population, feeding/residual contact activity, preventive. Type of series: in vivo. The conditions noted are these: foliar, 144 h, sprayed sunflower leaf discs, aphid population of mixed ages, 6 days incubation. From the text:
Activity Against Myzus persicae (Green Peach Aphid)
(Mixed Population, Feeding/Residual Contact Activity, Preventive)

In series [2] the test system is Bemisia tabaci (Cotton White Fly). The experiment in a line: Activity against Bemisia tabaci (cotton white fly), feeding/residual contact activity, preventive. Type of series: in vivo. To be noted: foliar, 144 h, sprayed cotton leaf discs, 12 to 18 adults, 6 days after infestation, read-out: activity (mortality and special effects). The method, then: Activity Against Bemisia tabaci (Cotton White Fly)
(Feeding/Residual Contact Activity, Preventive)
Cotton leaf discs were placed on agar in a 24-well microtiter plate and sprayed with test solutions. After drying, the leaf discs were infested with 12 to 18 adults. After an incubation period of 6 days after infestation, samples were checked for mortality and special effects (e.g. phytotoxicity).

Turning to `O=C1CCOc2ccc(-c3cnn(-c4cccnc4)c3)nc21` [Compound 7.004, 6-[1-(3-pyridyl)pyrazol-4-yl]-2,3-dihydropyrano[3,2-b]pyridin-4-one], the mortality at 200 ppm in series [1] and in series [2] was over 80% in each case.

The molecule `CC(=O)N/N=C1\CCCc2ccc(-c3cnn(-c4cccnc4)c3)nc21` [Compound 6.007, acetic acid [2-(1-pyridin-3-yl-1H-pyrazol-4-yl)-6,7-dihydro-5H-quinolin-ylidene]-hydrazide] showed a mortality at 200 ppm in series [1] of over 80%.

The molecule `CN1Cc2ccc(-c3cnn(-c4cccnc4)c3)nc2C1=O` [Compound 9.001] returned a mortality at 200 ppm in series [1] of over 80%.

For `CO/N=C1\CCOc2ccc(-c3cnn(-c4cccnc4)c3)nc21` [Compound 1.008, N-methoxy-6-[1-(3-pyridyl)pyrazol-4-yl]-2,3-dihydropyrano[3,2-b]pyridin-4-imine], the mortality at 200 ppm in series [1] and in series [2] was over 80% throughout.

For `CO/N=C1\CCCc2sc(-c3cnn(-c4cccnc4)c3)nc21` [Compound 3.002, N-methoxy-2-[1-(3-pyridyl)pyrazol-4-yl]-6,7-dihydro-5H-1,3-benzothiazol-4-imine], the mortality at 200 ppm in series [1] was over 80%.

As for `CC(C)O/N=C1\CCCc2ccc(-c3cnn(-c4cccnc4)c3)nc21` (single isomer, unassigned) [Compound 1.005, 2-(1-pyridin-3-yl-1H-pyrazol-4-yl)-6,7-dihydro-5H-quinolin-8-one O-isopropyl-oxime], the melting point was in the range of 128 to 130 °C.

Take `CON=C1c2nc(-c3cnn(-c4cccnc4)c3)ccc2N(C)S(=O)(=O)C1(C)C` (single isomer, unassigned) [Compound 8.004, N-methoxy-1,3,3-trimethyl-2,2-dioxo-6-[1-(3-pyridyl)pyrazol-4-yl]pyrido[3,2-c]thiazin-4-imine]: the mortality at 200 ppm in series [1] and in series [2] was over 80% in each case.

On to `CC1CCc2ccc(-c3cnn(-c4cccnc4)c3)nc2C1=O` (stereo not shown) [Compound 9.003], for which the mortality at 200 ppm in series [1] and in series [2] was over 80% in each case.

For the molecule `CCO/N=C1\CS(=O)(=O)N(C)c2ccc(-c3cnn(-c4cccnc4)c3)nc21` [Compound 8.003, N-ethoxy-2-hydroxy-1-methyl-2-oxo-6-[1-(3-pyridyl)pyrazol-4-yl]pyrido[3,2-c]thiazin-4-imine], the mortality at 200 ppm in series [1] and in series [2] was over 80% in each case.

In the case of `Cn1c(=O)c2c(nc(-c3cnn(-c4cccnc4)c3)n2C)n(C)c1=O` [Compound 9.002], the melting point was over 300 °C.

Consider `O=C1CCCc2ccc(-c3cnn(-c4cccnc4)c3)nc21` [Compound 7.002, 2-(1-pyridin-3-yl-1H-pyrazol-4-yl)-6,7-dihydro-5H-quinolin-8-one], for which the mortality at 200 ppm in series [2] is over 80%.
